# ChEMBL document CHEMBL3596152, “Synthesis of 1-O-acetylbritannilactone analogues from Inula britannica and in vitro evaluation of their anticancer potential” (Medchemcomm, 2014)
# Activity calls are given as the source filed them. The rule behind the calls is not given here.
# How the values were obtained:
# [1] = Cytotoxicity against human SGC7901 cells assessed as reduction in cell viability incubated for 72 hrs by SRB assay; type: functional, cell-based; conditions: SGC-7901, 72 h
# HeLa [2] = experiment: Cytotoxicity against human HeLa cells assessed as reduction in cell viability incubated for 72 hrs by SRB assay; type: functional, cell-based
# HCT-116 = experiment: Cytotoxicity against human HCT116 cells assessed as reduction in cell viability incubated for 72 hrs by SRB assay; type: functional, cell-based; conditions: HCT-116, 72 h
# [3] = Thiol reactivity in DMSO-d6 solution assessed as formation of 1-O-acetyl-6-O-benzoyl-13-(2-hydroxyethylthiol) britannilactone at 0.05 mmol in presence of beta-mercaptoethanol by 1H NMR Michael acceptor assay
# HeLa [4] = experiment: Induction of cell cycle arrest in human HeLa cells assessed as accumulation at G2/M pahse at 20 uM incubated for 24 hrs by propidium iodide staining based flow cytometry (reference value: 28.4%); type: functional
# HeLa [5] = experiment: Induction of apoptosis in human HeLa cells assessed as late apoptotic cells levels at 3 uM incubated for 72 hrs by annexin V-FITC and propidium iodide staining based flow cytometry (reference value: 2.8%); type: functional
# HeLa [6] = experiment: Induction of apoptosis in human HeLa cells assessed as early apoptotic cells levels at 6 uM incubated for 72 hrs by annexin V-FITC and propidium iodide staining based flow cytometry (reference value: 1.4%); type: functional
# HeLa [7] = experiment: Cytotoxicity against human HeLa cells assessed as reduction in cell viability at 1.57 to 12.5 uM incubated for 72 hrs by SRB assay; type: functional, cell-based
# HeLa [8] = experiment: Induction of cell cycle arrest in human HeLa cells assessed as accumulation at G0/G1 phase at 20 uM incubated for 24 hrs by propidium iodide staining based flow cytometry (reference value: 31.1%); type: functional
# HeLa [9] = experiment: Induction of cell cycle arrest in human HeLa cells assessed as accumulation at G2/M pahse at 10 uM incubated for 24 hrs by propidium iodide staining based flow cytometry (reference value: 28.4%); type: functional
# HeLa [10] = experiment: Induction of cell cycle arrest in human HeLa cells assessed as accumulation at S pahse at 20 uM incubated for 24 hrs by propidium iodide staining based flow cytometry (reference value: 40.5%); type: functional
# HeLa [11] = experiment: Induction of cell cycle arrest in human HeLa cells assessed as accumulation at G2/M pahse at 5 uM incubated for 24 hrs by propidium iodide staining based flow cytometry (reference value: 28.4%); type: functional
# HeLa [12] = experiment: Induction of cell cycle arrest in human HeLa cells assessed as accumulation at S pahse at 5 uM incubated for 24 hrs by propidium iodide staining based flow cytometry (reference value: 40.5%); type: functional
# [13] = Thiol reactivity in DMSO-d6 solution at 0.05 mmol in presence of beta-mercaptoethanol by 1H NMR Michael acceptor assay
# [14] = Thiol reactivity in DMSO-d6 solution assessed as formation of 1,6-O,O-diacetyl-13-(2-hydroxyethylthiol) britannilactone at 0.05 mmol in presence of beta-mercaptoethanol by 1H NMR Michael acceptor assay
# HeLa [15] = experiment: Induction of apoptosis in human HeLa cells assessed as late apoptotic cells levels at 6 uM incubated for 72 hrs by annexin V-FITC and propidium iodide staining based flow cytometry (reference value: 2.8%); type: functional
# HeLa [16] = experiment: Induction of apoptosis in human HeLa cells assessed as increase in cleaved caspase-3 levels at 3 to 12 uM incubated for 48 hrs by Western blotting method; type: functional, cell-based
# HeLa [17] = experiment: Induction of cell cycle arrest in human HeLa cells assessed as accumulation at G0/G1 phase at 10 uM incubated for 24 hrs by propidium iodide staining based flow cytometry (reference value: 31.1%); type: functional
# HeLa [18] = experiment: Induction of apoptosis in human HeLa cells assessed as necrotic cells levels at 3 uM incubated for 72 hrs by annexin V-FITC and propidium iodide staining based flow cytometry (reference value: 0.2%); type: functional
# HeLa [19] = experiment: Induction of cell cycle arrest in human HeLa cells assessed as accumulation at S pahse at 10 uM incubated for 24 hrs by propidium iodide staining based flow cytometry (reference value: 40.5%); type: functional
# HeLa [20] = experiment: Cytotoxicity against human HeLa cells assessed as reduction in cell viability at 1.57 to 12.5 uM in presence of 1 mM NAC incubated for 72 hrs by SRB assay; type: functional, cell-based
# HeLa [21] = experiment: Induction of apoptosis in human HeLa cells assessed as necrotic cells levels at 6 uM incubated for 72 hrs by annexin V-FITC and propidium iodide staining based flow cytometry (reference value: 0.2%); type: functional
# HeLa [22] = experiment: Induction of apoptosis in human HeLa cells assessed as early apoptotic cells levels at 3 uM incubated for 72 hrs by annexin V-FITC and propidium iodide staining based flow cytometry (reference value: 1.4%); type: functional
# HeLa [23] = experiment: Induction of cell cycle arrest in human HeLa cells assessed as accumulation at G0/G1 phase at 5 uM incubated for 24 hrs by propidium iodide staining based flow cytometry (reference value: 31.1%); type: functional
# HeLa [24] = experiment: Induction of apoptosis in human HeLa cells assessed as necrotic cells levels at 10 uM incubated for 72 hrs by annexin V-FITC and propidium iodide staining based flow cytometry (reference value: 0.2%); type: functional
# HeLa [25] = experiment: Induction of apoptosis in human HeLa cells assessed as late apoptotic cells levels at 10 uM incubated for 72 hrs by annexin V-FITC and propidium iodide staining based flow cytometry (reference value: 2.8%); type: functional
# HeLa [26] = experiment: Induction of apoptosis in human HeLa cells assessed as early apoptotic cells levels at 10 uM incubated for 72 hrs by annexin V-FITC and propidium iodide staining based flow cytometry (reference value: 1.4%); type: functional
# HeLa [27] = experiment: Induction of apoptosis in human HeLa cells assessed as increase in cleaved caspase-3 levels at 3 uM incubated for 48 hrs by Western blotting method; type: functional, cell-based
compound,measurement,setting,value
C=C1C(=O)O[C@@H]2CC(C)=C([C@@H](C)CCCOC(C)=O)[C@@H](OC(=O)COc3cccc4[nH]nnc34)[C@H]12,IC50,[1],21.1 µM
same,IC50,HeLa [2],23 µM
same,IC50,HCT-116,23.7 µM
C=C1C(=O)O[C@@H]2CC(C)=C([C@@H](C)CCCOC(C)=O)[C@@H](OC(=O)CCl)[C@H]12,IC50,[1],26.5 µM
same,IC50,HeLa [2],28.5 µM
same,IC50,HCT-116,18.8 µM
C=C1C(=O)O[C@@H]2CC(C)=C([C@@H](C)CCCOC(C)=O)[C@@H](OC(=O)COc3cccc(C(C)=O)c3)[C@H]12,IC50,[1],46.1 µM
same,IC50,HeLa [2],38.6 µM
same,IC50,HCT-116,45.5 µM
C=C1C(=O)O[C@@H]2CC(C)=C([C@@H](C)CCCOC(C)=O)[C@@H](OC(=O)COc3ccc(C(=O)OCCC)cc3)[C@H]12,IC50,[1],27.7 µM
same,IC50,HeLa [2],22.9 µM
same,IC50,HCT-116,37.5 µM
C=C1C(=O)O[C@@H]2CC(C)=C([C@@H](C)CCCOC(C)=O)[C@@H](OC(=O)c3ccc(OC)cc3)[C@H]12,IC50,HeLa [2],8.85 µM
C=C1C(=O)O[C@@H]2CC(C)=C([C@@H](C)CCCOC(C)=O)[C@@H](OC(=O)COc3ccc4c(C(F)(F)F)noc4c3)[C@H]12,IC50,[1],19.7 µM
same,IC50,HeLa [2],19.2 µM
same,IC50,HCT-116,21.5 µM
C=C1C(=O)O[C@@H]2CC(C)=C([C@@H](C)CCCOC(C)=O)[C@@H](OC(=O)c3ccccc3)[C@H]12,Activity,[3],Active
same,Activity,HeLa [4],63.7%
same,Activity,HeLa [5],6.9%
same,Activity,HeLa [6],4.5%
same,Activity,HeLa [7],Dose-dependent effect
same,Activity,HeLa [8],20.7%
same,Activity,HeLa [9],53.2%
same,Activity,HeLa [10],15.6%
same,Activity,HeLa [11],29.2%
same,IC50,[1],9.93 µM
same,IC50,HeLa [2],5.19 µM
same,Activity,HeLa [12],41.3%
same,Activity,[13],Active
same,Activity,[14],Active
same,IC50,HCT-116,10.5 µM
same,Activity,HeLa [15],30%
same,Activity,HeLa [16],Dose-dependent effect
same,Activity,HeLa [17],28.7%
same,Activity,HeLa [18],0.3%
same,Activity,HeLa [19],18.1%
same,Activity,HeLa [20],inactive
same,Activity,HeLa [21],3.5%
same,Activity,HeLa [22],3.9%
same,Activity,HeLa [23],29.5%
C=C1C(=O)O[C@@H]2CC(C)=C([C@@H](C)CCCOC(C)=O)[C@@H](OC(=O)CN3CCCC3)[C@H]12,IC50,[1],18.4 µM
same,IC50,HeLa [2],12.7 µM
same,IC50,HCT-116,20.5 µM
C=C1C(=O)O[C@@H]2CC(C)=C([C@@H](C)CCCOC(C)=O)[C@@H](OC(=O)c3cc(OC)c(OC)c(OC)c3)[C@H]12,IC50,HeLa [2],6.54 µM
O=c1[nH]cc(F)c(=O)[nH]1 [FLUOROURACIL],IC50,[1],0.86 µM
same,IC50,HeLa [2],4.71 µM
same,IC50,HCT-116,4.9 µM
C=C1C(=O)O[C@@H]2CC(C)=C([C@@H](C)CCCOC(C)=O)[C@@H](OC(=O)COc3cccc4cccnc34)[C@H]12,IC50,[1],14.3 µM
same,IC50,HeLa [2],8.94 µM
same,IC50,HCT-116,12.1 µM
C=C1C(=O)O[C@@H]2CC(C)=C([C@@H](C)CCCOC(C)=O)[C@@H](OC(=O)COc3ccc(C(C)=O)cc3)[C@H]12,IC50,[1],49.6 µM
same,IC50,HeLa [2],43.9 µM
same,IC50,HCT-116,40.1 µM
C=C1C(=O)O[C@@H]2CC(C)=C([C@@H](C)CCCOC(C)=O)[C@@H](OC(C)=O)[C@H]12,Activity,[3],Active
same,Activity,HeLa [24],11%
same,IC50,[1],15.9 µM
same,IC50,HeLa [2],11.2 µM
same,Activity,HeLa [25],24.4%
same,Activity,[13],Active
same,Activity,[14],Active
same,IC50,HCT-116,10.1 µM
same,Activity,HeLa [26],6.9%
C=C1C(=O)O[C@@H]2CC(C)=C([C@@H](C)CCCOC(C)=O)[C@@H](OC(=O)COc3ccc([N+](=O)[O-])cc3[N+](=O)[O-])[C@H]12,IC50,[1],> 100 µM
same,IC50,HeLa [2],> 100 µM
same,IC50,HCT-116,> 100 µM
C=C1C(=O)O[C@@H]2CC(C)=C([C@@H](C)CCCOC(C)=O)[C@@H](OC(=O)c3ccccc3F)[C@H]12,IC50,[1],19.3 µM
same,IC50,HeLa [2],17 µM
same,IC50,HCT-116,21.1 µM
C=C1C(=O)O[C@@H]2CC(C)=C([C@@H](C)CCCOC(C)=O)[C@@H](OC(=O)c3ccc(C)cc3)[C@H]12,IC50,HeLa [2],5.46 µM
C=C1C(=O)O[C@@H]2CC(C)=C([C@@H](C)CCCOC(C)=O)[C@@H](OC(=O)c3ccc(F)cc3)[C@H]12,IC50,[1],13.6 µM
same,IC50,HeLa [2],12 µM
same,IC50,HCT-116,14.9 µM
C=C1C(=O)O[C@@H]2CC(C)=C([C@@H](C)CCCOC(C)=O)[C@@H](OC(=O)CN3CCCCC3)[C@H]12,IC50,[1],11.5 µM
same,IC50,HeLa [2],10.3 µM
same,IC50,HCT-116,13.9 µM
C=C1C(=O)O[C@@H]2CC(C)=C([C@@H](C)CCCOC(C)=O)[C@@H](OC(=O)c3cccc(F)c3)[C@H]12,IC50,[1],12.9 µM
same,IC50,HeLa [2],11.8 µM
same,IC50,HCT-116,14.5 µM
C=C1C(=O)O[C@@H]2CC(C)=C([C@@H](C)CCCOC(C)=O)[C@@H](OC(=O)CN3CCOCC3)[C@H]12,IC50,[1],14.1 µM
same,IC50,HeLa [2],13.9 µM
same,IC50,HCT-116,16.3 µM
C=C1C(=O)O[C@@H]2CC(C)=C([C@@H](C)CCCOC(C)=O)[C@@H](O)[C@H]12,IC50,[1],47.8 µM
same,IC50,HeLa [2],32.6 µM
same,IC50,HCT-116,36.1 µM
C=C1C(=O)O[C@@H]2CC(C)=C([C@@H](C)CCCOC(C)=O)[C@@H](OC(=O)CN(CC)CC)[C@H]12,IC50,[1],11.6 µM
same,IC50,HeLa [2],10.7 µM
same,IC50,HCT-116,13.1 µM
CC(=O)OCCC[C@H](C)C1=C(C)C[C@H]2OC(=O)C(CSCCO)[C@H]2[C@@H]1OC(C)=O (stereo partly specified),IC50,[1],> 100 µM
same,IC50,HeLa [2],> 100 µM
same,IC50,HCT-116,> 100 µM
C=C1C(=O)O[C@@H]2CC(C)=C([C@@H](C)CCCOC(C)=O)[C@@H](OC(=O)c3ccc([N+](=O)[O-])cc3)[C@H]12,IC50,HeLa [2],11.3 µM
C=C1C(=O)O[C@@H]2CC(C)=C([C@@H](C)CCCOC(C)=O)[C@@H](OC(=O)COc3ccc4c(CC)noc4c3)[C@H]12,IC50,[1],21.2 µM
same,IC50,HeLa [2],21.7 µM
same,IC50,HCT-116,18.3 µM
CC(=O)OCCC[C@H](C)C1=C(C)C[C@H]2OC(=O)C(CSCCO)[C@H]2[C@@H]1OC(=O)c1ccccc1 (stereo partly specified),IC50,[1],> 100 µM
same,IC50,HeLa [2],> 100 µM
same,IC50,HCT-116,> 100 µM
COc1cc([C@@H]2c3cc4c(cc3[C@@H](O[C@@H]3O[C@@H]5CO[C@@H](C)O[C@H]5[C@H](O)[C@H]3O)[C@H]3COC(=O)[C@H]23)OCO4)cc(OC)c1O [ETOPOSIDE],IC50,[1],6.56 µM
same,IC50,HeLa [2],2.97 µM
same,IC50,HCT-116,2.13 µM
same,Activity,HeLa [27],Active
